Assay results as given in patent publication US5519034A, “Tetraisoquinoline compounds which have useful pharmaceutical utility” (The Boots Company PLC, priority 1991, dated 1996).
Like-named read-outs stand apart in the source and are kept apart here.

How the values were obtained:
D1 dopamine receptors = target: T1, D1 dopamine receptors (Rattus norvegicus, UniProt P18901); experiment: D1 dopamine receptor binding: inhibition of tritiated SCH 23390 binding, rat striatal samples; set-up: species or system rat (male Charles River CD rats); conditions: rat striatum, tritiated SCH 23390, pH 7.4, 37° C., 30 minutes
T1 construct: Striatal samples from the brains of male Charles River CD rats; from tissue; host or cells: striatum of male Charles River CD rats (washed membrane pellet)
T1 sequence (P18901 whole entry): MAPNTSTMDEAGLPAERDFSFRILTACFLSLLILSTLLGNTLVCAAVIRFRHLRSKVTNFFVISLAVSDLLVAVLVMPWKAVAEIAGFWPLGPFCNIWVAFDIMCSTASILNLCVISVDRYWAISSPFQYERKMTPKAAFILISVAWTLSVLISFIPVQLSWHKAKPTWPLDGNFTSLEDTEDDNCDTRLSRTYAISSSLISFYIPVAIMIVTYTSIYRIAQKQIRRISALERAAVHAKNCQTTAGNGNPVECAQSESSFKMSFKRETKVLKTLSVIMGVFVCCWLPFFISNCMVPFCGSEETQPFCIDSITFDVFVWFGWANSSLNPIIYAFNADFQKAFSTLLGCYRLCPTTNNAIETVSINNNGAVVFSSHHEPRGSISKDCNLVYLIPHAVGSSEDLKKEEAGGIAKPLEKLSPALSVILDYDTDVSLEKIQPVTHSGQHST
Protocol: (§1) Striatal samples from the brains of male Charles River CD rats weighing between 140-250 g were homogenised in ice-cold 50 mM Tris-HCl buffer (pH 7.4 when measured at 25° C. for D1 binding assays and pH 7.7 when measured at 25° C. for D2 binding assays) and centrifuged for 10 minutes (at 21,000 g when used for D1binding assay and 40,000 g when used for D2binding assays). The pellet was resuspended in the same buffer, again centrifuged and the final pellet stored at -80° C. Before each test the pellet was resuspended in 50 mM Tris-HCl buffer containing 120 mM NaCl, 5 mM KCl, 2 mM CaCl2 and 1 mM MgCl2 at pH 7.4 for the D1 binding assays and at pH 7.7 with the addition of 6 mM ascorbic acid for the D2 binding assays. Aliquots of this suspension were then added to tubes containing the ligand and either the compound under test or buffer. For the D1 binding assays the ligand was tritiated SCH 23390 and the mixture was incubated at 37° C. for 30 minutes before the incubation was terminated by rapid filtration. For the D2 binding assays the ligand was tritiated (S)-sulpiride and the mixture was incubated at 4° C. for 40 minutes before the incubation was terminated by rapid filtration. Non-specific binding was determined experimentally by the addition of saturating concentrations of chloropromazine or spiroperidol for D1 and D2 receptors respectively.
(§2) The filters were washed with ice-cold Tris-HCl buffer and dried. The filters were punched out on to vials containing scintillation fluid and were left for about 20 hours before being counted by scintillation spectrophotometry. Displacement curves were produced over a range of concentrations of the compound under test and the concentration which gave a 50% inhibition of specific binding (IC50) obtained from the curve. The inhibition coefficient Ki was then calculated using the formula [formula] in which [ligand] is the concentration of the tritiated ligand used and KD is the equilibrium dissociation constant for the ligand.
(§3) In some cases Ki values for D2 binding were estimated from single concentration data by the application of the Langmuir adsorption isotherm equation. These cases are indicated by an "E" in the last two columns of Table I. In other cases it was not possible to determine or estimate the Ki and the Ki value is given as greater than (>) that which would result from the application of the above formula to the highest concentration which displaced ≤50% of the ligand.

D2 dopamine receptors = target: T2, D2 dopamine receptors (Rattus norvegicus, UniProt P61169); experiment: D2 dopamine receptor binding: inhibition of tritiated (S)-sulpiride binding, rat striatal samples; set-up: species or system rat (male Charles River CD rats); conditions: for Ki: rat striatum, tritiated (S)-sulpiride; for Ki for D2 / Ki for D1: ratio to two significant figures
T2 construct: Striatal samples from the brains of male Charles River CD rats; from tissue; host or cells: striatum of male Charles River CD rats (washed membrane pellet)
T2 sequence (P61169 whole entry): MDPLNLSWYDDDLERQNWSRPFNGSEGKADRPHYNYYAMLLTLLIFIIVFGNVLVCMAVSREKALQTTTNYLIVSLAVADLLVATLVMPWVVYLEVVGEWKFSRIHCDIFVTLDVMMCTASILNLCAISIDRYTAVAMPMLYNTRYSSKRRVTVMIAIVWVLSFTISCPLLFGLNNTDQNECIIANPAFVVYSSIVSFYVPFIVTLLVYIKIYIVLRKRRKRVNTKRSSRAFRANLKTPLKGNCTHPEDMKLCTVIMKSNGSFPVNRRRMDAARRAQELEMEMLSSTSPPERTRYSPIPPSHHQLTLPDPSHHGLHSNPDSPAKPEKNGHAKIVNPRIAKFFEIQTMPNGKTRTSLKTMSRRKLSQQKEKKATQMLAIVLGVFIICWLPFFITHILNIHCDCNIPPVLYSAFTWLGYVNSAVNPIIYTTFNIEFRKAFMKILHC
Protocol: as §1, §2, §3

[1] = pH 7.7, 4° C., 40 minutes, > = from highest concentration which displaced ≤50% of the ligand, read-out: Ki for D2 binding
[2] = estimated from single concentration data by Langmuir adsorption isotherm equation, read-out: Ki for D2 binding (marked E)

SMILES | Ki (D1 dopamine receptors) [µM] | Ki (D2 dopamine receptors; [1]) [µM] | Ki for D2 / Ki for D1 (D2 dopamine receptors) | Ki (D2 dopamine receptors; [2]) [µM]
CN1CCc2cc(F)c(O)cc2C1C1(c2ccccc2Cl)CC1 (stereo not drawn) [Example 61, 1-[1-(2-chlorophenyl)cyclopropyl]-6-fluoro-7-hydroxy-2-methyl-1,2,3,4-tetrahydroisoquinoline] | 0.00018 | 0.45 | 2500 | 
CN1CCc2cc(F)c(O)cc2C1C1(c2ccc(Cl)cc2)CCC1 (stereo not drawn) [Example 5, 1-[1-(4-chlorophenyl)cyclobutyl]-6-fluoro-7-hydroxy-2-methyl-1,2,3,4-tetrahydroisoquinoline] | 0.0083 | 32 | 3900 | 
CN1CCc2ccc(O)cc2C1C1(c2ccc(Cl)cc2)CCC1 (stereo not drawn) [Example 51, 1-[1-(4-chlorophenyl)cyclobutyl]-7-hydroxy-2-methyl-1,2,3,4-tetrahydroisoquinoline] | 0.013 | > 0.5 | > 38 | 
CN1CCc2cc(O)c(O)cc2C1C1(c2ccccc2Br)CCC1 (stereo not drawn) [Example 1, 1-[1-(2-bromophenyl)cyclobutyl]-6,7-dihydroxy-2-methyl-1,2,3,4-tetrahydroisoquinoline] | 0.004 | 1 | 250 | 
CN1CCc2ccc(O)cc2C1C1(c2ccccc2Cl)CC1 (stereo not drawn) [Example 12, 1-(1-(2-chlorophenyl)cyclopropyl)-7-hydroxy-2-methyl-1,2,3,4-tetrahydroisoquinoline] | 0.0014 | 0.71 | 510 | 
CCN1CCc2cc(O)c(O)cc2C1C1(c2ccc(Cl)cc2)CCC1 (stereo not drawn) [Example 66, 1-[1-(4-chlorophenyl)cyclobutyl]-2-ethyl-6,7-dihydroxy-1,2,3,4-tetrahydroisoquinoline] | 0.12 | > 0.5 | > 4.2 | 
CN1CCc2cc(O)c(O)cc2C1C1(c2ccccc2C(F)(F)F)CCC1 (stereo not drawn) [Example 23, 6,7-dihydroxy-2-methyl-1-[1-(2-trifluoromethylphenyl)cyclobutyl]-1,2,3,4-tetrahydroisoquinoline] | 0.018 | 15 | 830 | 
COc1cc2c(cc1O)C(C1(c3ccccc3OC)CCC1)N(C)CC2 (stereo not drawn) [Example 38, 7-hydroxy-6-methoxy-1-[1-(2-methoxyphenyl)cyclobutyl]-2-methyl-1,2,3,4-tetrahydroisoquinoline] | 0.0041 | 3.4 | 830 | 
CN1CCc2cc(O)c(O)cc2C1C1(c2ccc(O)cc2)CCCC1 (stereo not drawn) [Example 19, 6,7-dihydroxy-1-[1-(4-hydroxyphenyl)cyclopentyl]-2-methyl-1,2,3,4-tetrahydroisoquinoline] | 0.19 |  |  | 7
CN1CCc2cc(O)c(O)cc2C1C1(c2ccccc2)CCCC1 (stereo not drawn) [Example 15, 6,7-dihydroxy-2-methyl-1-(1-phenylcyclopentyl)-1,2,3,4-tetrahydroisoquinoline] | 0.2 | > 5 | > 25 | 
Cc1ccccc1C1(C2c3cc(O)c(O)cc3CCN2C)CCC1 (stereo not drawn) [Example 4, 6,7-dihydroxy-2-methyl-1-[1-(o-tolyl)cyclobutyl]-1,2,3,4-tetrahydroisoquinoline] | 0.029 | 260 | 9000 | 
CN1CCc2cc(O)c(O)cc2C1C1(c2ccc(Cl)cc2)CCC1 (stereo not drawn) [Example 50, 1-[1-(4-chlorophenyl)cyclobutyl]-6,7-dihydroxy-2-methyl-1,2,3,4-tetrahydroisoquinoline] | 0.025 | 1.5 | 60 | 
CN1CCc2cc(O)c(O)cc2C1C1(c2ccccc2)CCCCC1 (stereo not drawn) [Example 29, 6,7-dihydroxy-2-methyl-1-(1-phenylcyclohexyl)-1,2,3,4-tetrahydroisoquinoline] | 0.12 |  |  | 7
COc1cc2c(cc1O)C(C1(c3cccc4ccccc34)CC1)N(C)CC2 (stereo not drawn) [Example 43, 7-hydroxy-6-methoxy-2-methyl-1-[1-(1-naphthyl)cyclopropyl]-1,2,3,4-tetrahydroisoquinoline] | 0.0014 | 0.86 | 610 | 
CN1CCc2cc(O)c(O)cc2C1C1(c2ccccc2F)CCC1 (stereo not drawn) [Example 7, 1-[1-(2-fluorophenyl)cyclobutyl]-6,7-dihydroxy-2-methyl-1,2,3,4-tetrahydroisoquinoline] | 0.021 | 2.9 | 140 | 
COc1cc2c(cc1O)C(C1(c3ccc(Cl)cc3Cl)CCC1)N(C)CC2 (stereo not drawn) [Example 37, 1-[1-(2,4-dichlorophenyl)cyclobutyl]-7-hydroxy-6-methoxy-2-methyl-1,2,3,4-tetrahydroisoquinoline] | 0.0006 | 5.3 | 8800 | 
COc1cccc(C2(C3c4cc(O)c(OC)cc4CCN3C)CCC2)c1 (stereo not drawn) [Example 39, 7-hydroxy-6-methoxy-1-[1-(3-methoxyphenyl)cyclobutyl]-2-methyl-1,2,3,4-tetrahydroisoquinoline] | 0.023 | 1.9 | 83 | 

Further lines, results first:

Ki (D1 dopamine receptors) [µM] | Ki (D2 dopamine receptors; [1]) [µM] | Ki for D2 / Ki for D1 (D2 dopamine receptors) | Ki (D2 dopamine receptors; [2]) [µM] | SMILES
0.0021 | 5.8 | 2800 |  | COc1cc2c(cc1O)C(C1(c3ccccc3Cl)CCC1)N(C)CC2 (stereo not drawn) [Example 69, 1-[1-(2-chlorophenyl)cyclobutyl]-7-hydroxy-6-methoxy-2-methyl-1,2,3,4-tetrahydroisoquinoline]
0.0009 | 5 | 5500 |  | COc1cc2c(cc1O)C(C1(c3ccccc3OC)CC1)N(C)CC2 (stereo not drawn) [Example 73, 7-hydroxy-6-methoxy-1-[1-(2-methoxyphenyl)cyclopropyl]-2-methyl-1,2,3,4-tetrahydroisoquinoline]
0.047 | 9.5 | 200 |  | COc1cc2c(cc1O)C(C1(c3ccc(OC(F)(F)F)cc3)CCC1)N(C)CC2 (stereo not drawn) [Example 72, 7-hydroxy-6-methoxy-2-methyl-1-[1-(4-trifluoromethoxyphenyl)cyclobutyl]-1,2,3,4-tetrahydroisoquinoline]
0.0019 | 0.33 | 170 |  | CN1CCc2cc(F)c(O)cc2C1C1(c2ccc(Cl)cc2Cl)CC1 (stereo not drawn) [Example 81, 1-[1-(2,4-dichlorophenyl)cyclopropyl]-6-fluoro-7-hydroxy-2-methyl-1,2,3,4-tetrahydroisoquinoline]
0.06 | > 5 | > 83 |  | COc1cc2c(cc1O)C(C1(c3ccccc3Cl)CC1)N(CCO)CC2 (stereo not drawn) [Example 76, 1-[1-(2-chlorophenyl)cyclopropyl]-7-hydroxy-2-(2-hydroxyethyl)-6-methoxy-1,2,3,4-tetrahydroisoquinoline]
0.002 | 1.9 | 950 |  | COc1cc2c(cc1O)C(C1(c3ccccc3Br)CCC1)N(C)CC2 (stereo not drawn) [Example 68, 1-[1-(2-bromophenyl)cyclobutyl]-7-hydroxy-6-methoxy-2-methyl-1,2,3,4-tetrahydroisoquinoline]
0.15 | > 5 | > 33 |  | COCCN1CCc2cc(OC)c(O)cc2C1C1(c2ccccc2Cl)CC1 (stereo not drawn) [Example 75, 1-[1-(2-chlorophenyl)cyclopropyl]-7-hydroxy-6-methoxy-2-(2-methoxyethyl)-1,2,3,4-tetrahydroisoquinoline]
0.053 |  |  | 7 | C=CCN1CCc2cc(O)c(O)cc2C1C1(c2ccc(Cl)cc2)CCC1 (stereo not drawn) [Example 67, 2-allyl-1-[1-(4-chlorophenyl)cyclobutyl]-6,7-dihydroxy-1,2,3,4-tetrahydroisoquinoline]
0.0018 | 4.9 | 2700 |  | COc1cc2c(cc1O)C(C1(c3cccc4c3OCC4)CC1)N(C)CC2 (stereo not drawn) [Example 82, 1-[1-(2,3-dihydrobenzo[b]furan-7-yl)cyclopropyl]-7-hydroxy-6-methoxy-2-methyl-1,2,3,4-tetrahydroisoquinoline]
0.00067 | 0.37 | 550 |  | Cc1cc2c(cc1O)C(C1(c3ccccc3Cl)CC1)N(C)CC2 (single isomer, unassigned; (+)) [Example 80, (+)-1-[1-(2-chlorophenyl)cyclopropyl]-7-hydroxy-2,6-dimethyl-1,2,3,4-tetrahydroisoquinoline]
